Reference: patent US8440464B2, “Method for evaluation or selection of adiponectin secretion regulator” (Kao Corporation, priority 2008, dated 2013)

Tested on: plasma adiponectin level
Assay: Plasma adiponectin level in REM sleep deprivation rat model (platform method), rat adiponectin ELISA
Format: in vivo
Settings: SD rats, 30-hour REM sleep deprivation, oral 150 mg/kg thrice every 12 hours (300 mg/kg/day), vs. control group receiving distilled water, P<0.05 (Fisher's PLSD test)
Experimental: SD rats (male, 10 to 11 weeks old) were divided into groups, each containing rats with similar body weights. A cylindrical platform (diameter: 6.0 cm, height: 2.5 cm) on which a rat can take a rest was placed in a cage, and water was added to the cage so that the water level was adjusted to 1 cm below the top of the platform. Each rat was reared for one to four days in the cage (one rat/cage). Rats of a rest group were reared in cages each containing a common floorcloth (N=4 for each group). In a chlorogenic acid administration experiment, rats were reared in cages for 30-hour REM sleep deprivation. Rats of a chlorogenic acid (5-CQA, product of Sigma) administration group orally received chlorogenic acid thrice every 12 hours by means of a probe (dose: 150 mg/kg (300 mg/kg/day)). Rats of a control group received distilled water. Rats of a rest group were reared in cages each containing a common floorcloth, and received distilled water (N=6 for each group). […] The plasma adiponectin level was determined by means of a rat adiponectin ELISA kit (product of ADIPOGEN®). Specifically, plasma was 1,000-fold diluted with a dilution buffer contained in the kit, and then plasma adiponectin level was determined according to the kit protocol.

Compound: O=C(/C=C/c1ccc(O)c(O)c1)O[C@@H]1C[C@](O)(C(=O)O)C[C@@H](O)[C@H]1O [chlorogenic acid]
- Effect on reduction in plasma adiponectin level caused by REM sleep deprivation: significantly suppressed a reduction in plasma adiponectin level
